How the values were obtained:
[1] = system: PC-9/GR cells; assay: Cell viability assay (CCK-8), PC-9/GR; type: cell-based, human; settings: 72 h
Method: Cell proliferation was measured using the Cell Counting Kit-8 (CCK-8, B34304, Bimake, USA). A549 (2 × 10^3/100 μL/well), PC-9 (3 × 10^3/100 μL/well) or PC-9/GR cells (3 × 10^3/100 μL/well) were plated into each well of 96-well plates (Costar, USA). […] Then, 10 μL of CCK-8 was added to each well, and cells were incubated for 1-4 h until the color of untreated controls turned to orange. The absorbance (A) was measured by a microplate reader (FLUOstar Omega-ACU, USA) at test and reference wavelengths of 450 nm. The percentage of growth was calculated as Cell viability (%) = [A (Compound +) - A (Blank) ] / [A (Compound -) - A (Blank) ] × 100%. Cell viability meant proliferation of cells. Each experiment was done at least in triplicate, and thrice independently.

[2] = Acute toxicity study; type: in vivo; settings: KM mice, 100, 300 and 500 mg/kg i.p., observed 14 days
Method: KM mice (4-5 weeks of age, weighing 18-22g, both male and female) for acute toxicity experiment were provided from the Experimental Animal Center of Sun Yat-sen University (Guangdong, China) and were housed in a specific pathogen-free facility. To test the acute toxicity, 40 mice were randomly distributed into 4 groups, and treated with W2014-S at 100 mg/kg, 300 mg/kg, and 500 mg/kg by intraperitoneal injection. Each group have 10 mice (half male and half female). […] All animal experiments were approved by the Research Ethics Committee of Sun Yat-sen University (SYSU-IACUC-2020-000312).

[3] = target: full-length wild-type STAT3 (Homo sapiens, UniProt P40763); assay: Surface plasmon resonance analysis of binding to STAT3; settings: SPR
Method: Biacore 8K and Biacore Insight Evaluation software were used to analyze the interaction between the agents and the protein full-length wild-type STAT3 to detect the binding affinity. Purified STAT3 (100 μg/mL) without Tris and glycerin was injected onto the CM5 Chip (GE, USA) for immobilization. Several concentrations of W2014-S or W2014-R dissolved in running buffer (1×PBS with filtration, 0.01% DMSO) were flown over the chip to produce response signals. The kinetics and affinities were calculated by the Biacore Insight Evolution software, and the results were determined as the binding affinity (KD).

[4] = system: c-Caspase-7; assay: Western blot of c-Caspase-7 in A549 and PC-9 cells; type: cell-based, human
Method: (§1) Cells or tumor tissue were lysed with RIPA buffer (Beyotime, Shanghai, China) supplemented with protease inhibitors (Beyotime, Shanghai, China) and phosphatase inhibitors (Bimake, USA). Lysates were denatured by heating for 5 min at 99 °C and loaded on 4-10% SDS-polyacrylamide gel electrophoresis. Then the proteins were transferred to polyvinylidene fluoride (PVDF) membranes (Millipore, USA). The membranes were blocked and probed with primary antibodies and secondary HPR-conjugated antibodies. At last the membranes were detected by chemiluminescence (Tanon, Shanghai, China). For co-immunoprecipitation experiments, 293T cells were plated and grew to about 80% confluency, then co-transfected with plasmids of HA-STAT3 and Flag-STAT3 using Lipofectamine 2000. After 24 h, cells were treated with different concentrations of W2014-S for following 24 h, and stimulated with IL-6 (100 ng/mL) for 1 h. Cells were lysed with IP RIPA buffer (Beyotime, Shanghai, China) supplemented with protease inhibitors (Beyotime, Shanghai, China) and phosphatase inhibitors (Bimake, America), and lysates were cultured with Anti-flag Affinity Gel (B23102, Bimake, USA) overnight at 4 ℃. The gel was washed by PBST for three times and added 1×loading buffer and denatured by heating for 5 min at 99 ℃. Then the proteins were resolved on SDS-PAGE, transferred to PVDF membranes and analysed with immunoblotting.

[5] = system: pY705-STAT3; assay: Immunofluorescence of nuclear pY705-STAT3 in A549 cells; type: cell-based, human; settings: A549, 3 h treatment
Method: A549 cells were cultured into confocal dishes (Costar, USA). After 24 h, W2014-S was added into dishes. After another 3 h, cells were fixed with 4% paraformaldehyde in PBS for 10 min at room temperature. Then cells were permeabilized with 0.3% Trition X-100 for 5 min at room temperature, following by incubating with primary antibody overnight at 4 ℃. Next, cells were incubated with Alexa-Fluor-conjugated secondary antibodies for 1 h in the dark. The cells were subsequently stained with DAPI (40728ES50, Yeasen, Shanghai, China). Images were captured by Laser Scanning Confocal Microscope FV3000 (Olympus, Japan). Z-stacks were collected with a spacing of 1 μm. Antibody and dilutions used in the studies were: pY705-STAT3 (9145S, Cell Signaling Technology, 1:100), Alexa Fluor 488 Conjugate (1:5000, #4412, Cell signaling Technology, USA). The fluorescence intensity profile along the Z-axis from confocal Z-stacks was shown. The fluorescence intensity of nuclear-localized p-STAT3 was quantified using the confocal software to define the area of the selected region of interest based on the nuclear DAPI signal. Each experiment was done in at least 3 independent experiments.

[6] = target: STAT3-STAT3 dimerization (Homo sapiens, UniProt P40763); assay: Co-immunoprecipitation of HA-STAT3 and Flag-STAT3 in HEK-293T cells; type: cell-based; set-up: expressed in transfected cells; settings: 24 h, 50 ng/mL EGF 30 min
Method: as §1, with “After 24 h, cells were treated with different concentrations of W2014-S for following 24 h, and stimulated with IL-6 (100 ng/mL) for 1 h.” left out

STAT3-STAT3 dimerization, sequence (P40763 whole entry): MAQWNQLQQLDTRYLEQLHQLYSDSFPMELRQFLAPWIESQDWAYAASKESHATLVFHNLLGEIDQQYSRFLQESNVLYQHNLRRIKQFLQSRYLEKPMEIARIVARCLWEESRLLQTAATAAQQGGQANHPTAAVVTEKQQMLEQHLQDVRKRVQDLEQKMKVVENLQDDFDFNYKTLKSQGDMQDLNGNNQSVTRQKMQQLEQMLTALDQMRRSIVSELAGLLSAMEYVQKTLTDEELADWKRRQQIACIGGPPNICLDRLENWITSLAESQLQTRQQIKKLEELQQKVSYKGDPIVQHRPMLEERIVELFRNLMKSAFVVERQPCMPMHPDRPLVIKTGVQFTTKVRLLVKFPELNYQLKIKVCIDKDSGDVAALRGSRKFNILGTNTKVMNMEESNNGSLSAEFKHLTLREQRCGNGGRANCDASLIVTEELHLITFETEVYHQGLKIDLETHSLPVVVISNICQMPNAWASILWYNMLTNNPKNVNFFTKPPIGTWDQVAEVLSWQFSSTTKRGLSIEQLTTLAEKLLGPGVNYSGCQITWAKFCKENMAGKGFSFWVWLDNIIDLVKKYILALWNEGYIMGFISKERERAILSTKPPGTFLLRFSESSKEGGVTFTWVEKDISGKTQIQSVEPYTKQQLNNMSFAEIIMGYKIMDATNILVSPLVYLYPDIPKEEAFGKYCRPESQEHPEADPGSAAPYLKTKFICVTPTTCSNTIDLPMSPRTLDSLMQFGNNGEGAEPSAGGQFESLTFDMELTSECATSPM
full-length wild-type STAT3, sequence (P40763 whole entry): as above

## C[C@H](Oc1ccc(-c2nc3nc(C4=CCN(C(=O)OC(C)(C)C)CC4)ccc3[nH]2)cc1)c1ccccc1 [W2014-S]
[1]; PC-9/GR, with erlotinib
  sensitization of acquired resistance (erlotinib): sensitized acquired resistance
[1]; W2014-S 1 μM, gefitinib 2 μM
  resensitization of PC-9/GR to gefitinib: sufficient to resensitize PC-9/GR to gefitinib
[2]
  acute toxicity: body weights and signs of toxicity: no significant changes in body weights, or obvious signs of toxicity
[3]
  Kd: 3.64 µM
[4]
  cleavage of caspase-7: induced
[5]
  accumulation of pY705-STAT3 in the nucleus: decreased
[6]
  binding of HA-STAT3 and Flag-STAT3 (STAT3 dimerization): inhibited the binding of HA-STAT3 and Flag-STAT3 in intact cells even at 0.3 μM
